Assay results published in the supplement of paper PMC10307832.

Assays:
Test in all cases: relative viability (nuclei count vs DMSO), 5 days (fraction); higher = more cells survive
[1] = compound: CCOC1=CC=CC=C1N=NC2=C(NN(C2=O)C3=NC(=CS3)C4=CC=CC=C4)C [BAM7] + COc1cccc2cc(-c3nc([C@H]4CC[C@H](C(=O)O)CC4)n4ncnc(N)c34)[nH]c12 [OSI-027] (partner 0.5 µM)
How it was run: (§1)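 A single step with final 0.05% Triton X-100, 1% formaldehyde and 1 ug/ml Hoechst fixed the cells and stained nuclei 5 days after treatment. Lung cancer cell lines in 1536-well plates had been treated by pin tool the day after seeding with one drug alone or a fixed anchor-drug dose plus five library-drug doses (not always all listed) in √10 steps, and nuclei were counted on 4× images. Relative viability is the ratio of nuclei in treated wells to nuclei in vehicle wells, taken as the median of duplicate plates.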

[2] = compound: CCn1c(-c2nonc2N)nc2c(C#CC(C)(C)O)ncc(OC[C@H]3CCCNC3)c21 + CCNC(=O)c1noc(-c2cc(C(C)C)c(O)cc2O)c1-c1ccc(CN2CCOCC2)cc1 [Luminespib] (partner 0.01 µM)
How it was run: as §1

[3] = compound: CCn1c(-c2nonc2N)nc2c(C#CC(C)(C)O)ncc(OC[C@H]3CCCNC3)c21 + CS(=O)(=O)CCNCc1ccc(-c2ccc3ncnc(Nc4ccc(OCc5cccc(F)c5)c(Cl)c4)c3c2)o1 [Lapatinib] (partner 2 µM)
How it was run: as §1

[4] = compound: CCn1c(-c2nonc2N)nc2c(C#CC(C)(C)O)ncc(OC[C@H]3CCCNC3)c21 + NC(=O)Nc1cc(-c2cccc(F)c2)sc1C(=O)N[C@H]1CCCNC1 [AZD7762] (partner 0.2 µM)
How it was run: as §1

Cell Line | relative viability ([1]; first compound 0.5 µM) | relative viability ([1]; first compound 5 µM) | relative viability ([1]; first compound 15.81 µM) | relative viability ([1]; first compound 50 µM) | relative viability ([2]; first compound 0.01 µM) | relative viability ([2]; first compound 0.03162 µM) | relative viability ([2]; first compound 0.1 µM) | relative viability ([2]; first compound 0.3162 µM) | relative viability ([2]; first compound 1 µM) | relative viability ([3]; first compound 0.01 µM) | relative viability ([3]; first compound 0.03162 µM) | relative viability ([3]; first compound 0.1 µM) | relative viability ([3]; first compound 0.3162 µM) | relative viability ([3]; first compound 1 µM) | relative viability ([4]; first compound 0.01 µM) | relative viability ([4]; first compound 0.03162 µM) | relative viability ([4]; first compound 0.1 µM) | relative viability ([4]; first compound 0.3162 µM) | relative viability ([4]; first compound 1 µM)
201T | 0.772 | 0.662 | 0.708 | 0.705 | 1.04 | 1.03 | 1.02 | 1.03 | 1.03 | 0.991 | 1.06 | 1.05 | 1.05 | 1.01 | 0.679 | 0.713 | 0.628 | 0.51 | 0.68
A549 |  |  |  |  |  |  |  |  |  | 0.93 | 0.99 | 1.01 | 0.842 | 0.781 |  |  |  |  | 
A-427 | 0.58 | 0.466 | 0.491 | 0.49 | 0.944 | 1.03 | 0.77 | 0.867 | 0.946 | 0.962 | 1.05 | 0.932 | 1.03 | 1.03 | 0.701 | 0.767 | 0.747 | 0.696 | 0.777
ABC-1 | 0.491 | 0.504 | 0.474 | 0.593 |  | 0.533 | 1.04 | 0.403 | 0.682 | 1.28 | 1.26 | 1 | 1.13 | 1.15 | 0.705 |  | 0.568 | 0.716 | 0.594
BEN | 0.306 | 0.299 | 0.314 | 0.326 | 0.235 | 0.337 | 0.332 | 0.571 | 0.452 | 0.608 | 0.717 | 0.444 | 0.637 | 0.626 | 0.629 | 0.696 | 0.562 | 0.686 | 0.696
CAL-12T | 0.553 | 0.492 | 0.432 | 0.845 | 0.234 | 1.07 | 0.431 | 0.362 | 0.427 | 0.613 | 0.665 | 0.845 | 0.585 | 0.595 | 0.556 | 0.651 | 0.567 | 0.624 | 0.708
COR-L23 | 0.772 | 0.74 | 0.802 | 0.858 | 0.669 | 0.642 | 0.696 | 0.57 | 0.568 | 0.935 | 0.994 | 0.985 | 0.916 | 1.05 |  |  |  |  | 
COR-L 105 | 0.688 | 0.579 | 0.73 | 0.713 | 0.621 | 0.868 | 0.709 | 0.775 | 0.923 | 0.33 | 0.366 | 0.313 | 0.393 | 0.321 |  |  |  |  | 
Calu-6 |  |  |  |  |  |  |  |  |  | 1.06 | 1.14 | 1.11 | 1.04 | 1.07 |  |  |  |  | 
ChaGo-K-1 | 0.444 | 0.481 | 0.52 | 0.525 | 0.564 | 0.588 | 0.655 | 0.535 | 0.505 |  |  |  |  |  | 0.87 | 0.885 | 0.868 | 0.836 | 0.758
EBC-1 |  |  |  |  |  |  |  |  |  | 0.219 | 0.197 | 0.213 | 0.236 | 0.227 |  |  |  |  | 
EKVX | 0.648 | 0.768 | 0.557 | 0.662 | 0.788 | 0.887 | 0.867 | 0.878 | 0.911 | 0.235 | 0.203 | 0.223 | 0.206 | 0.223 | 0.699 | 0.687 | 0.632 | 0.732 | 0.596
EMC-BAC-2 | 0.378 | 0.384 | 0.355 | 0.461 | 1.18 | 1.17 | 1.23 | 1.18 | 1.21 | 0.871 | 0.83 | 0.866 | 0.88 | 0.938 | 1.11 | 1.04 | 1.08 | 0.94 | 1.17
EPLC-272H | 0.289 |  | 0.277 | 0.32 | 0.228 | 0.141 | 0.311 | 0.262 | 0.309 | 0.905 | 0.998 | 0.907 | 0.788 | 0.909 | 0.198 | 0.171 | 0.17 | 0.192 | 0.211
H3255 | 0.593 | 0.622 | 0.443 | 0.568 | 0.84 | 0.754 | 0.838 | 0.771 | 0.958 | 0.259 | 0.202 | 0.217 | 0.276 | 0.228 | 0.857 | 0.943 | 1 | 0.839 | 0.846
HARA | 0.53 | 0.63 | 0.468 | 0.485 | 0.942 | 0.222 | 0.666 | 0.585 | 0.603 | 0.718 | 0.7 | 0.684 | 0.554 | 0.95 | 0.269 | 0.629 | 0.485 | 0.156 | 0.299
HCC-78 | 0.39 | 0.372 | 0.423 | 0.384 |  |  |  |  |  | 0.717 | 0.673 | 0.903 | 0.547 | 0.301 | 0.627 | 0.532 | 0.579 | 0.614 | 0.445
